Values quoted from earlier work in patent publication US20150045432A1, “DIETARY SUPPLEMENT COMPRISING AMINO ACIDS IN A PALATABLE LIQUID FORMULATION THAT PROMOTES RESTFUL SLEEP, RECOVERY FROM STRESS AND EXERCISE AND STRENGTHENS THE IMMUNE SYSTEM” (North Health Essentials, LLC, priority 2013, published 2015).

Assays:
[1] = taken within an hour before going to bed, versus those who did not take the amino acid
[2] = rats
[3] = 3 grams of glycine, bolus before bedtime
[4] = after 60 minutes of administration, compared to water or L-threonine

| distribution in the brain [2] | Compound | alpha waves [4] | beta waves [4] | immunity under stress conditions (in vivo) | time after administration within which relaxant effects could be seen (induce relaxation and diminish anxiety) [h] | brainwave patterns of non-REM sleep and sleep length [1] | daytime sleepiness [3] | sleep quality and efficacy [3] |
| --- | --- | --- | --- | --- | --- | --- | --- | --- |
| – | NCCCC(=O)O [GABA, gamma-aminobutyric acid] | significantly increases alpha waves | decreases beta waves | could enhance immunity | ≤ 1 | – | – | – |
| accumulates in the pineal gland | NCC(=O)O [glycine] | – | – | – | – | showed brainwave patterns associated with non-REM sleep sooner and slept longer | lessened daytime sleepiness | improved sleep quality and efficacy |
